Results as given in patent US10774047B2 (THE TRUSTEES OF THE UNIVERSITY OF PENNSYLVANIA, priority 2015, dated 2020).
Entries after “also recorded” stand apart in the source; their conditions may differ.

What was measured:
[1] = test system: 1205Lu melanoma xenografts; test: 1205Lu melanoma xenograft model; format: in vivo, NSG mice
Experimental: (§1) FIG. 5: DQ661 has significant single-agent in vivo activity in melanoma xenograft model. […]. Mice were randomly split into 4 arms and treated with vehicle control (water, i.p.), quinacrine (8 mg/kg, i.p.), DQ660 (8 mg/kg, i.p.) or DQ661 (8 mg/kg, i.p.). Treatments were given as shown by the black arrows, following a regimen of 2 days on treatment followed by 2 days off treatment. (C) Representative electron micrographs from melanoma xenograft tumors harvested after 2 days of treatment according to (B). (D) Average tumor volumes for each treatment arm are shown. Each point represents the mean of N=8 mice per treatment arm and the error bars represent standard error (s.e.) (C) Representative EM for tumors treated in each arm. (E) A schematic for how mice were treated in (F). […]. Mice were randomly split into 3 arms and treated with water (i.p.), DQ661 (2 mg/kg, i.p.) or DQ661 (4 mg/kg, i.p.). Treatments were give as shown by the black arrows, following a regimen of 2 days on treatment followed by 2 days […]. Tumor volume is shown. Each point represents the mean of N=8 mice per treatment arm and the error bars represent s.e. (G) Average tumor growth rate for each treatment arm are shown. (H) Protein lysate was harvested from mouse tumors at the end of the experiment and immunoblotted for LC3B, phospho-4E-BP1 T37_T65, phospho-4E-BP1 S240_S244 and Actin. Quantification of proteins standardized to control mice levels are shown to the right.
(§2) Five to seven-week old NOD-scid gamma (NSG) mice (Jackson Laboratory) were used for xenograft studies with the 1205Lu melanoma cell line. Tumor generation, tumor measurement and tumor harvesting performed as previously described (ref). For the pancreatic cancer model, five to seven-week old C57BL/6 mice (Jackson Laboratory) and maintained under pathogen-free conditions. 2×10^6 G43 cells were subcutaneously injected with an equal volume of matrigel (BD) over the right flank […] and tumors became palpable after 5-6 days. Mice were enrolled on day 6 and given Gemcitabine (120 mg/kg, i.p.). DQ661 (4 mg/kg, i.p.) was given on days 7, 8, 12, 13, 17 and 18. Perpendicular tumor diameters were measured sing electronic calipers and volume was calculated leveraging the formula L×W^2×0.5, where L is the longest dimension and W is the perpendicular dimension. All animal experiments were performed in accordance to the protocols approved by the Institute of Animal Care and Use Committee of the University of Pennsylvania.
. After 1-2 weeks, tumors were palpable and mice were treated with vehicle control (water), quinacrine (8 mg/kg), DQ660 (8 mg/kg) or DQ661 (8 mg/kg) i.p (FIG. 5A). […]. Therefore another 1205Lu xenograft experiment was performed with mice treated with either vehicle control (water, n=6) or DQ661 (2 or 4 mg/kg, n=6) for a period of 14 days (FIG. 5e, 5F).

[2] = Tolerability in 1205Lu xenograft-bearing mice; format: in vivo
Experimental: as §1, §2
. After 1-2 weeks, tumors were palpable and mice were treated with vehicle control (water), quinacrine (8 mg/kg), DQ660 (8 mg/kg) or DQ661 (8 mg/kg) i.p (FIG. 5A). […]. […]

mTORC1 [3] = test: mTOR / LAMP2 co-localization imaging; conditions: A375P cells, 6 hours, 3 μM
A375P cells = test: Galectin-3 punctae assay (lysosomal membrane permeabilization); format: cell-based; conditions: 6 hours (LLOMe 3 hr, 2 mM)
Experimental: FIG. 3: Central nitrogen methylation status dictates DNA damage versus lysosomal membrane permeability. […] Cells were imaged with fluorescent microscopy, phospho-H2AX+ cells were scored using ImageJ software analysis and quantified to the right. (B) A375P cells were treated identical to the conditions in (A), with the addition of the positive control LLoMe (3 hr, 2 mM). Cells were subsequently stained with galectin-3 and imaged with fluorescent microscopy. The formation of galectin-3 punctae, which signify lysosomal membrane permeabilization, are pointed out with yellow arrows.
When lysosomes are healthy, galectin-3 is uniformly dispersed throughout the cell. However, when the lysosome is damaged, galectin-3 rapidly localizes to the site of damaged lysosomes, appearing as punctae and marking individual leaky lysosomes.

[4] = test system: ATG5 WT and ATG5-null MEFs; test: Long-term colony formation in ATG5+/+ and ATG5-/- MEFs; format: cell-based; conditions: 2 weeks, 10-300 nM
Experimental: (G) Long-term colony formation assays were performed with ATG5+/+ and ATG5−/− MEFs treated with DQ661 (2 weeks, 10-300 nM). Cells were subsequently stained with crystal violet and imaged.
The clonogenic assay was performed as previously described. Briefly, cells were suspended in appropriate culture media, and plated in 6-well plates (2×10^3 cells/well). Medium was changed and drug treatment refreshed every 3-4 days for 2 weeks. Cells were subsequently stained with crystal violet and quantified.

451Lu (melanoma) cells = test: Bafilomycin clamp experiment (autophagic flux); format: cell-based; conditions: 3 μM, with or without bafilomycin-A1, 24 hours
mTORC1 [5] = test: Immunoblot of mTORC1 signaling and LC3B, panel of lysosomal inhibitors; conditions: A375P cells
G43 cells [6] = test: G43 KPC pancreatic cancer syngeneic model; format: in vivo, C57BL/6 mice; conditions: gemcitabine 120 mg/kg i.p. once; DQ661 4 mg/kg i.p. 2 days on 3 days off
Experimental: FIG. 6: DQ661 potentiates in vivo activity of gemcitabine in KPC pancreatic cancer syngeneic model. (A) 4664 and G43 cells were treated with gemcitabine (72 hr, 3-30 nM). MTT was subsequently added and cell viability was determined by standardizing absorbance to control wells. (B) G43 cells were treated chronically for 2 weeks with gemcitabine (3-30 nM) in the presence or absence of DQ661 (30-300 nM) in colony formation assays. Cells were subsequently stained with crystal violet and imaged. (C) A schematic for how mice were treated in (D). G43 cells were injected into C57BL/6 mice (2×10^6 cells/mouse. Once palpable, mice were treated with vehicle (water, PBS), gemcitabine (120 mg/kg, i.p., once at day 6), DQ661 (4 mg/kg, i.p., starting on day 7 according to the regimen of 2 days on treatment followed by 3 days off treatment) or a combination of gemcitabine and DQ661. (D) Average tumor volumes for each treatment arm are shown. Each point represents the mean of N=8 mice per treatment arm and the error bars represent s.e. (E) Tumor growth rate from (D).
Five to seven-week old NOD-scid gamma (NSG) mice (Jackson Laboratory) were used for xenograft studies with the 1205Lu melanoma cell line. […] Perpendicular tumor diameters were measured sing electronic calipers and volume was calculated leveraging the formula L×W^2×0.5, where L is the longest dimension and W is the perpendicular dimension. […]

autophagy = conditions: background; cited from earlier work
G43 cells [7] = test: MTT viability of 4664 and G43 KPC pancreatic cancer cells; format: cell-based, mouse; conditions: 72 hr
Experimental: FIG. 6: DQ661 potentiates in vivo activity of gemcitabine in KPC pancreatic cancer syngeneic model. (A) 4664 and G43 cells were treated with gemcitabine (72 hr, 3-30 nM). MTT was subsequently added and cell viability was determined by standardizing absorbance to control wells. (B) G43 cells were treated chronically for 2 weeks with gemcitabine (3-30 nM) in the presence or absence of DQ661 (30-300 nM) in colony formation assays. Cells were subsequently stained with crystal violet and imaged. (C) A schematic for how mice were treated in (D). […]
For MTT assays, cells were plated in 96-well plates (2,000 cells/well), allowed to adhere overnight, and subsequently treated in triplicate for 72 hours. MTT reagent (Roche) was applied, cells were solubilized and absorbance was read at 570 nm, with background subtraction at 690 nm. […] Cells were subsequently stained with crystal violet and quantified. […]

SMILES | tumor growth ([1]; 8 mg/kg i.p., 2 days on / 2 days off) | autophagy in tumors (electron microscopy) ([1]; 8 mg/kg i.p., tumors harvested after 2 days of treatment) | tumor growth rate ([1]; 2 or 4 mg/kg i.p., 14 days) | tumor volume and tumor weight ([1]; 2 or 4 mg/kg i.p., 14 days) | Western blotting of tumor lysate (LC3, p62, phospho-4EBP1, phospho-S6) ([1]; 2 or 4 mg/kg i.p., end of experiment) | clinical outcome by day 7 ([2]; 8 mg/kg i.p.) | histological analysis of the intestines and liver ([2]; 8 mg/kg i.p.) | weight loss of mice ([2]; 8 mg/kg i.p.) | mice weight ([2]; 2 or 4 mg/kg i.p., 14 days) | mTOR and lysosomal (LAMP2) co-localization (mTORC1 [3]) | galectin-3 staining pattern (A375P cells) | cytotoxicity in ATG5 WT vs ATG5-null MEFs [4] | effect on autophagic flux (LC3II/LC3I ratio with vs without bafilomycin-A1) (451Lu (melanoma) cells) | autophagy inhibition (accumulation of LC3II/LC3I levels) among lysosomal inhibitors (mTORC1 [5]; 3 μM) | S6K (and 4E-BP1) phosphorylation (mTORC1 [5]; DQ661 3 μM, PET 10 μM, Bafilomycin A1 100 nM) | mTORC1 activity (Western blotting) (mTORC1 [5]; DQ661 3 μM, Pepstatin A 10 μG/mL, Siramesine 8 μM) | tumor growth (G43 cells [6]) | concentrations required to inhibit autophagy (autophagy) | sensitivity of G43 cells relative to parental 4664 cells (G43 cells [7])
COc1ccc2nc3cc(Cl)ccc3c(NCCCCCCN(C)CCCCCCNc3c4ccc(Cl)cc4nc4ccc(OC)cc34)c2c1 [DQ 661] | inhibited tumor growth to the greatest extent | inhibited autophagy as seen by electron microscopy of mouse tumors | significantly slower rates of growth | significant reduction in tumor volume and tumor weight compared to control mice | concurrent in vivo autophagy inhibition and mTORC1 inhibition | all mice were euthanized due to lethargy and bowel distension | Paneth cell dysfunction | greater than 10% | without significantly effect mice weight | loss of mTOR and lysosomal co-localization | punctate distribution of galectin-3 | equal cytotoxicity in ATG5 WT and ATG5-null MEFs; also recorded: equivalent activity | autophagy inhibitors | greatest ability to inhibit autophagy among the entire panel of lysosomal inhibitors | inhibit S6K and 4E-BP1 to a similar degree as the classical control of amino acid starvation | potently inhibits mTORC1 activity | significantly impaired | – | –
CCN(CCO)CCCC(C)Nc1ccnc2cc(Cl)ccc12 (centres unmarked) [HCQ, hydroxychloroquine] | – | – | – | – | – | – | – | – | – | – | – | – | – | – | – | – | – | High micromolar concentrations | –
Nc1ccn([C@@H]2O[C@H](CO)[C@@H](O)C2(F)F)c(=O)n1 [gemcitabine, reference compound] | – | – | – | – | – | – | – | – | – | – | – | – | – | – | – | – | significantly impaired | – | resistant to gemcitabine, relative to the parental treatment naïve 4664 cells
